The text below walks through data of patent publication US8071535B2, “Guanidinium derivatives for improved cellular transport” (The Regents of the University of California, priority 2003, dated 2011).

In assay [1] the test system is HeLa cells. The assay can be described thus: Scanning confocal fluorescence microscopy, cellular localization. As to conditions: confocal cross sections of living cells; 5 μM, 30 minute treatment. In kind it is cell-based, human. The method, then: The uptake of BODIPY-containing glycosides by two different eukaryotic cell lines was also studied using fluorescence microscopy.
(§1) In a typical experiment, cell cultures were treated with 0.5-5 μM of each compound for 0.5-1 hr, washed twice with buffer, cleaved with trypsin, and quantified for fluorescence at 530 nm.
(A) and (B) show cross-sectional images of two individual HeLa cells in solution following a 30 minute treatment with 5 μM of guanidine-neo-BODIPY and cleavage with trypsin.
Microscopy experiments have been conducted using both fluorescein-labeled and BODIPY-labeled guanidinoglycosides. The relative intensities of individual cells, following treatment with either fluorescent aminoglycosides or guanidinoglycosides are consistent with the trends from FACS experiments.

Assay [2] deals with 10T½ cells. Put plainly: Cellular uptake by FACS, 10T½ cells. Format: cell-based, mouse. As to conditions: for Mean Fluorescence Intensities of Treated Cells According to FACS, 10T1/2: 0.5 μM of each compound for 1 hr, average intensity of 10,000 individual cells; for Cellular uptake / transport efficiency compared to poly-Arg peptide BODIPY-Cys(Arg)9 (5) / Cellular uptake (in words): FACS; for Cellular uptake / transport efficiency compared to poly-Arg peptide BODIPY-Cys(Arg)9 (5): in words; for Enhancement of cellular uptake upon guanidinylation: relative to autofluorescence, guanidinoglycoside-BODIPY vs aminoglycoside-BODIPY; for Cellular uptake (in words): slightly above the autofluorescence of the cell itself. As for the experimental part:
(§2) 10T½ cells, an adherent non-transformed mouse fibroblast cell line, were purchased from ATCC and used before their 20th passage. HeLa cells, a common human cancer cell line, were a gift from Dr. Susan S. Taylor. Both cell lines were cultured in Dulbecco's modified eagle medium containing 10% fetal bovine serum at 37° C. in an 8% CO2 environment. For each experiment, cells were seeded onto 4 cm tissue culture plates (Nunc) and allowed to grow overnight to […].
(§3) Compounds 1-5 identified in Table 1, below (0.5-1 μM), were added to each dish and incubated at 37° C./8% CO2 for 0.5-1 hr. Cells were then washed once in PBS, trypsinized with 500 μl ATV solution (Gibco) for 3 minutes, pelleted in a fixed angle centrifuge for 5 minutes at 5,000×G, then brought up in 1 mL PBS. Each sample was quickly (within 5 minutes) analyzed on a FACS VantageSE cell sorter (Becton-Dickinson) using the 488 nm argon/krypton laser line and a 530 nm band pass emission filter. 2,000-10,000 cells were counted per sample.
(§4) Examples of FACS histograms are presented in FIG. 3, which illustrates the fluorescence intensity versus cell count for 10,000 individual 10T½ cells following a 1 hour incubation with 0.5 μM of: (A) tobra-BODIPY (Red) and guanidine-tobra-BODIPY (White); (B) neo-BODIPY (Red) and guanidine-neo-BODIPY (White); (C) BODIPY-Cys(Arg)9 (Red), or guanidine-neo-BODIPY (White); and (D) uptake of BODIPY-Cys(Arg)9 inhibited by guanidine-neomycin B (6) at 0 μM (Red), 10 μM (Black), 200 μM (Green).
as §1
A general note: Flow cytometry measures light scatter and fluorescence of single cells or particles in a stream.

The subject of assay [3] is HeLa cells. The assay can be described thus: Cellular uptake by FACS, HeLa cells. In kind it is cell-based, human. As to conditions: 1 μM of each compound for 0.5 hr; average intensity of 2,000 individual cells; about 10-fold higher instrumental gain than 10T1/2. The method, then: as §2, §3, §1
The test system of assay [4] is Rev-Response-Element (RRE). As to conditions: in words; cited from earlier work.
Assay [5] concerns 10T½ cells. The assay can be described thus: Competition experiment: uptake of BODIPY-Cys(Arg)9 in presence of unlabeled guanidino-neomycin B (6), FACS. Format: cell-based, mouse. As for the experimental part:
as §3, §4

Marks after values point to notes of the source that are not given here.

As for “guanidino-Neo-BODIPY hydrochloride [Guanidino-Neo-BODIPY (4)]”, the Cellular localization result in assay [1] is recorded as “two distinct types of cellular localization”. In assay [2], the “Mean Fluorescence Intensities of Treated Cells According to FACS, 10T1/2” value (shortened to “Mean Fluorescence Intensities … 10T1/2”) stood at 430 and the “Cellular uptake / transport efficiency compared to poly-Arg peptide BODIPY-Cys(Arg)9 (5)” value is “better cellular uptake”. In assay [3], the “Mean Fluorescence Intensities of Treated Cells According to FACS, HeLa” value (from here on “Mean Fluorescence Intensities … HeLa”) was 7,900.
Turning to “guainidino-tobra-BODIPY hydrochloride [Guanidino-Tobra-BODIPY (2)]”, in assay [2], the “Mean Fluorescence Intensities … 10T1/2” value is listed as 240 and the “Cellular uptake / transport efficiency compared to poly-Arg peptide BODIPY-Cys(Arg)9 (5)” value was “approximately the same transport efficiency”. Moreover, the “Mean Fluorescence Intensities … HeLa” value in assay [3] is 2,100.
Regarding `NC[C@H]1O[C@H](O[C@H]2[C@H](O)[C@@H](O[C@H]3O[C@H](CO)[C@@H](O)[C@H](N)[C@H]3O)[C@H](N)C[C@@H]2N)[C@H](N)C[C@@H]1O` [tobramycin, reference compound], the “Enhancement of cellular uptake upon guanidinylation” value in assay [2] is on record as “approximately 10 fold”.
Take `NC[C@@H]1O[C@H](O[C@H]2[C@@H](O)[C@H](O[C@@H]3[C@@H](O)[C@H](N)C[C@H](N)[C@H]3O[C@H]3O[C@H](CN)[C@@H](O)[C@H](O)[C@H]3N)O[C@@H]2CO)[C@H](N)[C@@H](O)[C@@H]1O` [neomycin B, reference compound]: in assay [2], the “Enhancement of cellular uptake upon guanidinylation” value is “approximately 20 fold”.
Take guanidino-tobramycin: the “Affinity to the RRE” value in assay [4] was “substantial affinity”.
Turning to `NC(N)=NC[C@@H]1O[C@H](O[C@H]2[C@@H](O)[C@H](O[C@@H]3[C@H](O)[C@@H](N=C(N)N)C[C@@H](N=C(N)N)[C@H]3O[C@H]3O[C@H](CN=C(N)N)[C@@H](O)[C@H](O)[C@H]3N=C(N)N)O[C@@H]2CO)[C@H](N=C(N)N)[C@@H](O)[C@@H]1O` [guanidine-neomycin B (6, guanidino-neomycin B], the “Affinity to the RRE” value in assay [4] was “substantial affinity”. Moreover, in assay [5] (FACS, unlabeled competitor 10-200 μM, in words), the “Inhibition of the transport of BODIPY-Cys(Arg)9 into cells” value is given as “effectively inhibits”.
For the compound “tobra-BODIPY hydrochloride [Tobra-BODIPY (1)]”, in assay [2], the “Mean Fluorescence Intensities … 10T1/2” value worked out at 60 and the “Cellular uptake (in words)” value was “poor cellular uptakes”. In assay [3], the “Mean Fluorescence Intensities … HeLa” value is on record as 1,000.
As for “BODIPY-Cys(Arg)9 hydrochloride (CRRRRRRRRR; N-acetyl, C-amide, BODIPY on Cys) [BODIPY-Cys (Arg)9 (5), poly-Arg transduction peptide ace-…-am labelled with BODIPY on Cys]”, the “Mean Fluorescence Intensities … 10T1/2” value in assay [2] was determined as 280. For the same compound, in assay [3], the “Mean Fluorescence Intensities … HeLa” value is recorded as 2,000. The “Mean Fluorescence Intensity, 10T1/2, in presence of 10 μM (6)” value in assay [5] (0.5 μM (5) + 10 μM guanidino-neomycin B (6), 1 hr) came to 110. Besides, the “Mean Fluorescence Intensity, 10T1/2, in presence of 50 μM (6)” value in assay [5] (0.5 μM (5) + 50 μM guanidino-neomycin B (6), 1 hr) was 90. Further, in assay [5] (0.5 μM (5) + 200 μM guanidino-neomycin B (6), 1 hr), the “Mean Fluorescence Intensity, 10T1/2, in presence of 200 μM (6)” value is 70.
For “neo-BODIPY hydrochloride [Neo-BODIPY (3)]”, in assay [2], the “Mean Fluorescence Intensities … 10T1/2” value stood at 60 and the “Cellular uptake (in words)” value is “poor cellular uptakes”. The “Mean Fluorescence Intensities … HeLa” value in assay [3] was ~1,400^(e).
